Results taken from patent US20050197634A1, “Methods for coating and impregnating medical devices with antiseptic compositions” (Board of Regents, The University of Texas System, priority 2004, published 2005).

Experiments:
Pseudomonas aeruginosa = assay: Zones of inhibition of impregnated device segments, modified Kirby-Bauer technique; assay type: cell-based; details: gentian violet after impregnating surfaces of various polymers incl. polyvinylchloride
Protocol: (§1) In Vitro antimicrobial activity. The antimicrobial activity of impregnated catheters was evaluated in duplicate by a modified Kirby-Bauer technique. BBL Mueller Hinton II agar plates (obtained from Fisher Scientific) were inoculated with 0.5 McFarland of the appropriate microorganism (hospital isolates from the MD Anderson Cancer Center). Then 10 mm segments of impregnated devices were embedded in the inoculated plates and placed in an incubator at about 37° C. for at least 18 hours. Zones of inhibition were measured perpendicular to the long axis of the device.
(§2) Anti-microbial activity of GND-ETT and GND-UC segments was assessed by modified Kirby-Bauer method. Segments were embedded in Mueller Hinton agar plates inoculated with one of the following organisms: Candida albicans (CA), vancomycin resistant enterococci (VRE), E. coli (EC), Candida parapsilosis(CP), methicillin resistant S. aureus (MRSA) or Pseudomonas aeruginosa (PS). Plates were incubated at 37° C. Zones of inhibition (ZOI) created by impregnated segments were measured in mm.
(§3) GND-ETT and GND-UC were immersed in sterile pooled bronchoalveolar lavage (BAL) or urine, respectively, and incubated at 37° C. BAL and urine were changed weekly and ZOI were determined in duplicate at weekly intervals.

[1] = test system: various nosocomial pathogens; assay: In vitro zones of inhibition of coated or impregnated catheter devices and sutures; assay type: cell-based; details: coating or impregnating catheter devices and sutures
Protocol: as §1

S. epidermis = details: in vitro study, gentian violet alone; cited from earlier work
[2] = test system: Methicillin resistant Staph. aureus (MRSA2066); assay: Zones of inhibition of impregnated device segments, modified Kirby-Bauer technique; assay type: cell-based; details: in words
Protocol: as §1, §2, §3

[3] = test system: Candida parapsilosis (C. Parap.1-100-0022); assay: as above; assay type: cell-based; details: in words
Protocol: as §1, §2, §3

Alcaligenes faecalis = assay: Zones of inhibition of impregnated PVC tubes; assay type: cell-based; details: in words
Protocol: as §1

[4] = sutures, compared with Genlenol

[H]/N=C(\N/C(=N/[H])NCCCCCCNC(=N)NC(=N)Nc1ccc(Cl)cc1)Nc1ccc(Cl)cc1 [chlorhexidine]
activity against Pseudomonas aeruginosa, agent on its own (Pseudomonas aeruginosa): not highly active

Cc1cc(O)cc(C)c1Cl [PCMX, p-chloro-m-xylenol; 4-chloro-3,5-dimethylxylenol, reference compound]
in vitro zones of inhibition against various nosocomial pathogens [1]: Neither the neutral form of PCMX nor its sodium salt could produce in vitro zones of inhibition

CN(C)c1ccc(C(=C2C=CC(=[N+](C)C)C=C2)c2ccc(N(C)C)cc2)cc1 [GV, Gentian violet]
colonization of S. epidermis on impregnated CSF silicone shunt surfaces (S. epidermis): prevent the colonization | activity against Pseudomonas aeruginosa, agent on its own (Pseudomonas aeruginosa): no activity

CC(C)(C)CC(C)(C)c1ccc([O-])c(Cc2ccc(Cl)cc2Cl)c1.CN(C)c1ccc(C(=C2C=CC(=[N+](C)C)C=C2)c2ccc(N(C)C)cc2)cc1 [Genfoctol]
in vitro zones of inhibition against various nosocomial pathogens [1]: large in vitro zones of inhibition | zones against MRSA [2, 4]: much larger zones | zones against C. parapsilosis [3, 4]: much larger zones

CN(C)c1ccc(C(=C2C=CC(=[N+](C)C)C=C2)c2ccc(N(C)C)cc2)cc1.Cc1cc([O-])cc(C)c1Cl [Genlenol]
in vitro zones of inhibition against various nosocomial pathogens [1]: large in vitro zones of inhibition | zone against MRSA ([2]; silicone catheter): increased the zone against MRSA considerably | zones of inhibition against C. parapsilosis ([3]; PVC tubes and PVC catheters): Improvements | zone against C. parapsilosis ([3]; silicone catheter): large zone | zones of inhibition against Alcaligenes faecalis (Alcaligenes faecalis): to a large extent

CN(C)c1ccc(C(=C2C=CC(=[N+](C)C)C=C2)c2ccc(N(C)C)cc2)cc1.[O-]c1cc(Cl)ccc1Oc1ccc(Cl)cc1Cl [Genlosan]
in vitro zones of inhibition against various nosocomial pathogens [1]: large in vitro zones of inhibition
